In publication PMC12040169 (PLOS Biology, 2025):

Key:
[1] = tested on: T1, CTL2-GFP (C. trachomatis L2/434/Bu, GFP-expressing); assay: microbe, parasite or virus in culture; design: Intracellular C. trachomatis growth in HeLa cells, bulk GFP fluorescence relative to DMSO; conditions: Chlamydia trachomatis, HeLa, 28.5 h; bulk GFP, mean of 2; read-out: % of control remaining
T1 construct: L2/434/Bu, GFP-expressing
Protocol: MICs were calculated as described above.

in vitro [2] = assay: in vitro; design: Viability of infected HeLa host cells, resazurin conversion, bulk resorufin fluorescence relative to DMSO; conditions: human, hela cells; bulk resorufin, mean of 2
[3] = tested on: T2, C. trachomatis L2/434/Bu expressing GFP (CTL2-GFP); assay: microbe, parasite or virus in culture; design: C. trachomatis total inclusion area by high-content imaging, normalised to DMSO; conditions: Chlamydia trachomatis, HeLa, 28.5 h; total inclusion area; read-out: % of control remaining
T2 construct: L2/434/Bu GFP intracellular growth in HeLa cells
Summary of the method: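 GFP/resorufin bulk fluorescence read → fix → Hoechst stain → high-content imaging. Inclusion total area + count = growth proxy; nuclei count = host viability proxy. MIC calc per earlier method.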

in vitro [4] = conditions: human, hela cells, % viability

SMILES	activity at 1 µM [1] [%]	activity at 5 µM [1] [%]	activity at 10 µM [1] [%]	viability at 28.5 h, 1 µM (in vitro [2]) [%]	viability at 28.5 h, 5 µM (in vitro [2]) [%]	viability at 28.5 h, 10 µM (in vitro [2]) [%]	activity at 1 µM [3] [%]	activity at 5 µM [3] [%]	activity at 10 µM [3] [%]	viability at 28.5 h, 10 µM (in vitro [4]) [%]
Clc1ccc2nc(-c3ccccn3)[nH]c2c1 [CBK000116]	75	13.8	1.74	111	104	104	70.7	9.19	1.69	83.8
Nc1cccc2c(OCCO)cccc12 [CBK001976C]	92.4	76.5	45.6	92.9	89	85.7	82.7	72.9	30.7	91.8
CC(NC(=O)N(Cc1ccccc1C(F)(F)F)CC(C)(C)CN)c1cccc2ccccc12 (stereo not shown) [CBK002422C]	112	51.5	34.5	90.1	94.1	101	78.4	41	12.2	91.9
Cc1ccc(NC(=O)N(Cc2ccc(-c3ccccc3)cc2)CC(C)(C)CN)c(C)c1 [CBK002428C]	126	87.3	46.1	90.2	88.8	86.4	115	68.5	10.7	94.9
Cc1ccc(NC(=O)n2ccc3c(N4CCNCC4)cccc32)cc1[N+](=O)[O-] [CBK003747C]	105	78.4	44.4	89.8	85.5	76.7	75.6	59.3	30.3	81.4
CC(N)C(=O)NC1CCN(c2nc3c(cc2F)c(=O)c(C(=O)O)cn3C23CC(C2)C3)C1 (stereo not shown) [CBK016632]	15.3	3.24	7.52	90.2	89.5	87	11.5	1.17	0.494	80.5
O=C(NCCNCCNC(=O)C1(c2ccccc2)CCCC1)C1(c2ccccc2)CCCC1 [CBK017670]	123	49.1	13.5	91.6	93.5	89.5	107	54.1	8.64	110
Cc1cc(C)c2nc(-c3ccccn3)cc(C(=O)Nc3ccc(S(=O)(=O)Nc4onc(C)c4C)cc3)c2c1 [CBK267775]	95.8	105	66.8	100	94.8	98.6	115	111	74.8	–
O=[N+]([O-])c1cc2c(cc1C(Nc1ccccn1)c1cc(Cl)c3cccnc3c1O)OCO2 (stereo not shown) [CBK267795]	109	82.9	79.7	95.1	98.7	93.2	94.3	40.8	25.9	–
Oc1c(CN2CCN(c3ccc(F)cc3)CC2)cc(Br)c2cccnc12 [CBK268051]	113	46.4	37.8	96.2	97.9	92.4	119	33	37.5	–
CN(C)c1ccc(Nc2nc(NCCO)c3ccccc3n2)cc1 [CBK268392C]	130	4.94	6.78	95.3	103	100	69.7	4.24	0.899	–
Oc1ccccc1Nc1nc(NC2CCCC2)c2ccccc2n1 [CBK268402C]	120	45.9	9.92	90.7	94.1	104	43.4	23.2	4.48	–
